Experimental data: ChEMBL document CHEMBL4130404, “Lamellodysidines A and B, Sesquiterpenes Isolated from the Marine Sponge Lamellodysidea herbacea” (J Nat Prod, 2017)
The source made the active and inactive calls. The calls are words filed in the database; no cut-off is given here.

Tests used:
Macrophage [1] = assay: Inhibition of cholesterol ester accumulation in macrophages (unknown origin); assay type: functional, cell-based
Macrophage [2] = assay: Inhibition of RANKL-induced formation of multinuclear osteoclasts in macrophages (unknown origin); assay type: functional, cell-based
Homo sapiens [3] = species: Homo sapiens; assay: Inhibition of ubiquitin/proteasome (unknown origin)
[4] = target: T1, Ubiquitin-like modifier-activating enzyme 1 (Homo sapiens) (UniProt P22314); assay: Inhibition of ubiquitin/ubiquitin-activating enzyme E1 (unknown origin)
T1 sequence (whole entry): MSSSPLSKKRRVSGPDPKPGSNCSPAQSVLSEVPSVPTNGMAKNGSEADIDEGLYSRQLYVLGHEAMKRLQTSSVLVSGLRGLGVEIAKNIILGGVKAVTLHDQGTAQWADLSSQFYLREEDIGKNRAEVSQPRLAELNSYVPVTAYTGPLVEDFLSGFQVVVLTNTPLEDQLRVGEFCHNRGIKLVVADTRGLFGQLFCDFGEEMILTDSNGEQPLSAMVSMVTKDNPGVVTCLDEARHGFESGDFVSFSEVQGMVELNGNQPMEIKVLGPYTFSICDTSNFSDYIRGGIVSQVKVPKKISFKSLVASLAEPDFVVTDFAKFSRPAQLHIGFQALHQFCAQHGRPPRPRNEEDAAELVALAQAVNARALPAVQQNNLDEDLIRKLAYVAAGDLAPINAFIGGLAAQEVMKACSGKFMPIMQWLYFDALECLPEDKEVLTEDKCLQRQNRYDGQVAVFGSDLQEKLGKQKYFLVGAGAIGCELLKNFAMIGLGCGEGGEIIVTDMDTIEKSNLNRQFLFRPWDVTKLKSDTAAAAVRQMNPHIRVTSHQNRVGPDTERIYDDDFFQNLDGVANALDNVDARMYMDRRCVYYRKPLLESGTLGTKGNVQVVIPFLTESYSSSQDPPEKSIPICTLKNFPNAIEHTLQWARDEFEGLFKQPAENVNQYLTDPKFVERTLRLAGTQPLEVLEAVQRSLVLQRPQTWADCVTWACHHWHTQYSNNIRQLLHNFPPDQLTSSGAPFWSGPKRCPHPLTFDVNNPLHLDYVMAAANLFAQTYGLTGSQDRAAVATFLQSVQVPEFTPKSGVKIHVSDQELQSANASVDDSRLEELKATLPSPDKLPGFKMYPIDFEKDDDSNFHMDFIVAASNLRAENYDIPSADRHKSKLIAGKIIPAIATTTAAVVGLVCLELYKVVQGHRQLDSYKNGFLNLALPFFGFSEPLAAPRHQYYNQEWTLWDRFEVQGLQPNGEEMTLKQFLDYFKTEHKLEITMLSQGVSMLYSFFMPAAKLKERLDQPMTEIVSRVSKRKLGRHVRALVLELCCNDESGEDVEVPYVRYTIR

Homo sapiens [5] = species: Homo sapiens; assay: Inhibition of ubiquitin/Ubc13/Uev1A (unknown origin)
[6] = target: Tumour suppressor p53/oncoprotein Mdm2 (Homo sapiens) (UniProt P04637+Q00987); assay: Inhibition of ubiquitin/p53/Mdm2 (unknown origin); assay type: protein assay
Sequence of Tumour suppressor p53/oncoprotein Mdm2 (Homo sapiens) (P04637 whole entry, looked up): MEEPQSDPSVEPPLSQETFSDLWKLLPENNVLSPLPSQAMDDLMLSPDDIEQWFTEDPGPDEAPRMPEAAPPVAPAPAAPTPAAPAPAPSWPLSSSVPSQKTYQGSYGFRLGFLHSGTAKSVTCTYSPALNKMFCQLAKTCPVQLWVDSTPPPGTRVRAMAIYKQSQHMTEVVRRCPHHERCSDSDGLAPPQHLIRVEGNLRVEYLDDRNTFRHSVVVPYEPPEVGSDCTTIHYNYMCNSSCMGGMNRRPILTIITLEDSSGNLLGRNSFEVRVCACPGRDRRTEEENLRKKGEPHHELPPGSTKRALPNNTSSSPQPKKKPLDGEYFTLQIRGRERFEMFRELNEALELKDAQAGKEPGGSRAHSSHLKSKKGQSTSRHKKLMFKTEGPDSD
Sequence of Tumour suppressor p53/oncoprotein Mdm2 (Homo sapiens) (Q00987 whole entry, looked up): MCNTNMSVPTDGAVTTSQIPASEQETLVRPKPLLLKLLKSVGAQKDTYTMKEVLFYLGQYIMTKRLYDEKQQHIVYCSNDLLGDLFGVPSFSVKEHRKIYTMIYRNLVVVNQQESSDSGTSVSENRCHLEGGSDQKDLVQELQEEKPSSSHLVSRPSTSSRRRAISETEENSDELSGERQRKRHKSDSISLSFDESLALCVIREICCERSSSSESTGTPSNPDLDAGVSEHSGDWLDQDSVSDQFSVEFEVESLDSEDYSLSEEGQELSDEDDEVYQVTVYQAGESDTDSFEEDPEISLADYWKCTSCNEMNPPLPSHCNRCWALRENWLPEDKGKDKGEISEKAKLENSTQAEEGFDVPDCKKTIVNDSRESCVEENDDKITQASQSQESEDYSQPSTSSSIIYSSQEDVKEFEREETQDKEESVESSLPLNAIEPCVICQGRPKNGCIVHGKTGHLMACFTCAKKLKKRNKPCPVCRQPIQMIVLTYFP

[7] = target: Ubiquitin carboxyl-terminal hydrolase 7 (Homo sapiens) (UniProt Q93009); assay: Inhibition of ubiquitin/USP7 (unknown origin)
Sequence of Ubiquitin carboxyl-terminal hydrolase 7 (Homo sapiens) (Q93009 whole entry, looked up): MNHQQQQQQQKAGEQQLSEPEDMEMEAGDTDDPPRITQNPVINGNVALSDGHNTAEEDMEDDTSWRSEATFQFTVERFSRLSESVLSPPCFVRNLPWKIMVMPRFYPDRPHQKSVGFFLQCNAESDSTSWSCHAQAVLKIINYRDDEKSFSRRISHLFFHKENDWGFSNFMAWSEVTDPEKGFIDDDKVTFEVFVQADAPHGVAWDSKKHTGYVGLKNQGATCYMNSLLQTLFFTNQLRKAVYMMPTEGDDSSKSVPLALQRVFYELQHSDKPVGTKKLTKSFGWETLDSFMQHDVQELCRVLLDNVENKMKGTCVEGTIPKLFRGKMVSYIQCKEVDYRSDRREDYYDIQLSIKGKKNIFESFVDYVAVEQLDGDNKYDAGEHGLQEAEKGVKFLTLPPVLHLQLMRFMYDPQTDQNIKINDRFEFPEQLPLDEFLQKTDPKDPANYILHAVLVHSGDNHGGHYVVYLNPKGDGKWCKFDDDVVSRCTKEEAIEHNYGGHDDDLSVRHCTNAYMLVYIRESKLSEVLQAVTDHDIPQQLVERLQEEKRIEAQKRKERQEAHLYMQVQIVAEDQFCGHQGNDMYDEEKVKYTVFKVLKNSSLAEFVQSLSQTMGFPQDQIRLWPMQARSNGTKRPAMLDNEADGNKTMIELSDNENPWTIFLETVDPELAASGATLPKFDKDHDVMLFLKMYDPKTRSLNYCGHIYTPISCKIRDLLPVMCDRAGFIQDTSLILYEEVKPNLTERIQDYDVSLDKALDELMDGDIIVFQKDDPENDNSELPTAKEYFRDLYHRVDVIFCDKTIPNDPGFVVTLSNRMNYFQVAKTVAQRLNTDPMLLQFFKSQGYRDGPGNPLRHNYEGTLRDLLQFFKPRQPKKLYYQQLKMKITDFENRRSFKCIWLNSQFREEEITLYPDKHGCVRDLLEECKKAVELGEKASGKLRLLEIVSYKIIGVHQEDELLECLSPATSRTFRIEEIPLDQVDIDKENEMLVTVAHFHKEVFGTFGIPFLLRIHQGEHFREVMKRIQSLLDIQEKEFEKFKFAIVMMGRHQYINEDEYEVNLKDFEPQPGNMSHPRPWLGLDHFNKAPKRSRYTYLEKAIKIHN

inhibition (Homo sapiens [3]): inactive
inhibition [4]: inactive
inhibition (Homo sapiens [5]): inactive
inhibition [6]: inactive
inhibition [7]: inactive
SMILES: CC1C2C=CC3(C)C1(C)CCC31C(=O)O[C@H](O)[C@@H]21 (some centres not stated)
inhibition (Macrophage [1]): inactive
inhibition (Macrophage [2]): inactive
